From patent US8222430B2, “1-heterodiene derivative and harmful organism control agent” (priority 2008, dated 2012)
Like-named read-outs stand apart in the source and are kept apart here.

Experiments:
Pseudaletia separate = assay: Confirmation of efficacy against Pseudaletia separate (maize leaf soak, insect mortality); format: in vivo; settings: 120 h, maize leaves soaked 30 seconds, second-instar larvae, after five days, 25° C., humidity 65%, read-out: mortality rate
Text: Maize leaves were soaked in the resulting chemical solution for 30 seconds and air-dried. Then the leaves were put on Petri dishes lined with a filter paper, followed by inoculating 5 second-instar larvae. […] Mortality was investigated after five days, and the insect mortality rate was obtained. The test was repeated twice.

Bemisia tabaci = assay: Confirmation of efficacy against Bemisia tabaci (sprayed detached tomato leaves, insect mortality); format: in vivo; settings: 72 h, B type adults, after three days, 25° C., humidity 65%, read-out: mortality rate
Text: Detached tomato leaves were sprayed with the resulting chemical solution and air-dried. Then, the leaves were set on flasks in a manner that the surface of the leaves face upward. […] The test was repeated twice.

Aphis gossypii = assay: Confirmation of efficacy against Aphis gossypii (cucumber seedlings, insect mortality); format: in vivo; settings: 120 h, read-out: mortality rate
Text: Mortality was investigated after five days, and the insect mortality rate was obtained.
The test was repeated twice.

[1] = tested on: Tetranychus urticae with organophosphate resistance; assay: Confirmation of efficacy against Tetranychus urticae (bean seedlings, mortality); settings: for mortality rate: 125 ppm, sprayed bean seedlings, female adults with organophosphate resistance, after three days, 25° C., humidity 65%
[2] = 125 ppm, cucumber seedlings parasitized with offspring, after five days, 25° C., humidity 65%

Structure (SMILES)	mortality at 125 ppm (Pseudaletia separate) [%]	mortality at 125 ppm (Bemisia tabaci) [%]	mortality rate [1] [%]	also measured
C(/Sc1ccccc1)=C1/CCS/C1=N\c1ccccc1 [Compound 1a-1, (Z)—N-((E)-3-(phenylthiomethylene)dihydrothiophen-2(3H)-ylidene)aniline]	100	100		
C(/Sc1ccccc1)=C1/CCCS/C1=N\c1ccccc1 [Compound 2a-1, (Z)—N-((E)-3-(phenylthiomethylene)tetrahydro-2H-thiopyran-2-ylidene) aniline]	100	100		mortality at 125 ppm (Aphis gossypii; [2]): 100%
Cc1ccc(/N=C2\SCCC\C2=C/Sc2ccc(F)cc2)cc1 [Compound 2a-78]			100	
Cc1ccc(/N=C2\OC(C)CC\C2=C/Sc2ccccc2)cc1 (centres unmarked) [Compound 2a-83]			100	
CCCC1CCC(=C\Sc2ccccc2)/C(=N/c2ccc(C)cc2)O1 (centres unmarked) [Compound 2a-84]			100	
Cc1ccc(/N=C2\OC(C)(C)CC\C2=C/Sc2ccccc2)cc1 [Compound 2a-85]			100	
Cc1ccc(/N=C2\OC(c3ccccc3)CC\C2=C/Sc2ccccc2)cc1 (centres unmarked) [Compound 2a-86]			100	
Cc1ccc(/N=C2\OC3CCCCC3C\C2=C/Sc2ccccc2)cc1 (centres unmarked) [Compound 5a-1]	100	100		mortality at 125 ppm (Aphis gossypii; [2]): 100%
Cc1ccc(/N=C2\OCc3ccccc3\C2=C/Sc2ccccc2)cc1 [Compound 5a-2]	100			
Cc1ccc(/N=C2\OC3CCCCC3\C2=C/Sc2ccccc2)cc1 (centres unmarked) [Compound 5a-3]	100	100		
Clc1ccc(/N=C2\SC3C=CCCC3C\C2=C/Sc2ccccc2)cc1 (centres unmarked) [Compound 5a-5, (4-chloro-phenyl)-{3-[1-phenylsulfanyl-(E)-methylidene]-3,4,4a,5,6,8a-hexahydro-thiochromene-(2Z)-ylidene}-amine]	100	100		mortality at 125 ppm (Aphis gossypii): 100%; mortality at 125 ppm ([1]; Tetranychus urticae, 72 h, read-out: mortality rate): 100%
